Assay results reported in publication PMC9775191, “A Subset Screen of the Compounds Australia Scaffold Library Identifies 7-Acylaminodibenzoxazepinones as Potent and Selective Hits for Anti-Giardia Drug Discovery” (Biomedicines, 2022).

System: G. duodenalis BRIS/91/HEPU/1279
Assay: Primary Giardia screen at 10 µM (live-cell imaging, automated counting)
Format: cell-based, Giardia duodenalis
Details: for % Inhibition n=1 48h / % Inhibition n=1 24h: first singlicate assay; for % Inhibition n=2 24h / % Inhibition n=2 48h: re-assessment
Summary of the method: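 One concentration, 10 μM, is screened per compound in singlicate under microaerophilic gas (3% O2, 5% CO2, N2). Inhibition comes from automated image-based counts at 24 and 48 h, relative to 0.2% DMSO controls.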

| Compound | % Inhibition n=1 48h [%] | also measured |
| --- | --- | --- |
| O=C(C1CCCN(c2cnccn2)C1)N1CCN(Cc2cccs2)CC1 (stereo not shown) [SN00769722] | 17.2 |  |
| COc1ccccc1CCC(=O)N1CCN(c2ncnc3[nH]cnc23)CC1 [SN00787062] | 0.0 |  |
| O=C(C(c1ccccc1)c1ccccc1)N1CCCC(c2nnc3n2CCCCC3)C1 (stereo not shown) [SN00771924] | 8.5 |  |
| COc1ccc(S(=O)(=O)N2CCc3nc(-c4ccccc4)ncc3C2)cc1 [SN00799076] | 6.9 |  |
| COc1ccc(-c2cc(C(=O)N(C)Cc3ccco3)[nH]n2)cc1 [SN00788220] | 44.3 |  |
| O=C(CCNS(=O)(=O)c1cccnc1)N1CCCC(c2nc3ccccc3o2)C1 (stereo not shown) [SN00780535] | 0.0 |  |
| Cc1ccsc1CCNC(=O)c1cnn2c(=O)c3c(n(C)c12)CCN(Cc1ccccc1)C3 [SN00788935] | 17.0 |  |
| Cc1cc(C(=O)N2CCCN(Cc3cnn(C)c3)CC2)on1 [SN00782463] | 0.0 |  |
| COc1ccccc1CNC(=O)CCN1C(=O)c2ccccc2C1=O [SN00807762] | 30.7 |  |
| Cc1csc(-c2cc(S(=O)(=O)N3c4ccccc4CC3C)c(C)n2C)n1 (stereo not shown) [SN00795179] | 71.5 | Average % Inhibition 24h: 22.6%; % Inhibition n=1 24h: 34.1%; % Inhibition n=2 24h: 11.1%; Average % Inhibition 48h: 63.7%; % Inhibition n=2 48h: 55.8% |
| CCC(C)NC(=O)CC1Sc2ncccc2N(C)C1=O (stereo not shown) [SN00799120] | 11.7 |  |
| Cc1nnc(C2Cc3ccccc3CN2CCOc2ccc(F)cc2)o1 (stereo not shown) [SN00783149] | 0.0 |  |
| CN(C)S(=O)(=O)c1ccc2c(c1)cc(C(=O)NCCCN1CCc3ccccc3C1)n2C [SN00792874] | 0.0 |  |
| CCOC(=O)c1ccc(NC(=O)Cn2c(=O)cc(-c3nc(C)no3)c3ccccc32)cc1 [SN00798707] | 2.1 |  |
| O=c1onc(-c2cccnc2)n1Cc1noc(C2CC2)n1 [SN00772712] | 0.0 |  |
| Cn1nnc2cc(CNC(=O)c3ccc(F)cc3)ccc21 [SN00798670] | 3.3 |  |
| CNc1cccnc1OC1CCN(C(=O)CCc2nc3ccccc3[nH]2)C1 (stereo not shown) [SN00799967] | 11.3 |  |
| COC(=O)c1ccc(Cn2c(-c3nnc(C(C)C)o3)cc3ccccc32)cc1 [SN00789282] | 4.4 |  |
| COc1ccc(CNC(=O)c2cc3c(=O)n(Cc4ccccc4)ccc3s2)cc1 [SN00797837] | 0.0 |  |
| CCn1cc(C(=O)Nc2ccc(F)cc2)c(S(=O)(=O)N2CCC(C)CC2)n1 [SN00798700] | 0.0 |  |
| COc1ccc(CNS(=O)(=O)c2c(C)nc3sc(C)nn23)cc1 [SN00799344] | 4.3 |  |
| CCCCN(CC)CCNC(=O)C1=C(C)C(=O)OC12CCN(CC)CC2 [SN00787839] | 0.0 |  |
| O=C(c1cccc(Br)c1)N1CCc2nc(-c3ccc(F)cc3)ncc2C1 [SN00799013] | 13.8 |  |
| O=C(NCc1cccc(Br)c1)c1ncoc1-c1cccs1 [SN00792278] | 6.4 |  |
| Cc1sc2cc(C(=O)NC(C)(C)C)[nH]c2c1CN1CCOCC1 [SN00798503] | 2.4 |  |
| O=[N+]([O-])c1ncn(Cc2nc(-c3ccc(C(F)(F)F)cc3)no2)n1 [SN00779286] | 16.5 |  |
| Cc1ccc(-c2cc(C(F)F)n3ncc(C(=O)NCc4cnn(C)c4C)c3n2)cc1 [SN00783829] | 0.0 |  |
| Cc1ccccc1S(=O)(=O)N1CCC2(CC1)Nc1ccc(Cl)cc1-n1cccc12 [SN00789223] | 20.1 |  |
| NC1=Nc2nc3ccccc3n2C(c2ccc(-c3ccc(F)cc3)o2)N1 (stereo not shown) [SN00776094] | 31.0 | Average % Inhibition 24h: 0.0%; % Inhibition n=1 24h: 0.0%; % Inhibition n=2 24h: 0.0%; Average % Inhibition 48h: 18.4%; % Inhibition n=2 48h: 5.8% |
| COc1ccc(CNC(=O)c2ccc(-c3noc(C4CCCN(C(=O)c5ccccc5)C4)n3)cc2)cc1 (stereo not shown) [SN00797402] | 14.7 |  |
